Key:
[1] = cited from earlier work; for half-life: stated in words
[2] = Trial of L-Dopa with C60 and mitochondrial fusion; type: in vivo, human; details: one subject
Procedure: In some embodiments, the amino acid L-Dopa is administered with a mitochondrial fusion promoter to stimulate the proliferation of SCs. In some embodiments it is used with C60 and/or with a demethylase promoter. In some embodiments it is used with glutamine. […] Treatment with L-Dopa may be combined with 5-HTP and/or SRIs for a full spectrum effect.

[3] = tested on: epigenetic age (methylation patterns of gene markers from buccal cells); test: Epigenetic age tests in AR (Age Regression) trials of the stem cell regime; type: in vivo, human
From the text: Test subject's epigenetic age results are summarized below in the table of AR (Age Regression) trials: The second column of Table 1 reports the difference between epigenetic and chronological age; the third column reports the weeks of treatment, wherein there was at least one fusion cycle per week and generally two […] cycles initially, decreasing to the end of this period to one treatment every week or two; the fourth column reports the total elapsed time from baseline; the fifth column reports the regimes used; and the sixth column reports the nutritional cocktails. Several companies are presently offering epigenetic tests that purport to give epigenetic age that generally closely correlates with chronological age. The subject had taken a test offered by Osiris Green two months prior beginning treatment. […] This was in spite of their prior use of C60 for several years outside of the regime. […] This was far outside the expected range. […] It appears that using a demethylase promoter during stem cell stimulation produces a far more rapid decline in epigenetic age, as removing aberrant methylation is easiest during cell division. The epigenetic testing labs used—Osirus Green, TrueMe, EpiAging and Epimorphy—all used different sets of genes, yet results were within a few years for samples taken at the same time. […] It was initially hypothesized that any negative impact would be minimal if used only with mitochondrial switches, but the telomeres of rapidly dividing TACs were likely also lengthened, and this blocked TAC senescence and replacement. Since TACs divide frequently, they also experience rapid epigenetic aging, thus somatic cells derived from TACs with telomeres extended by an agonist reach higher epigenetic age that would ordinarily be possible.

[4] = mice, intraperitoneal injection; cited from earlier work

SMILES: O=C1c2c(O)cc(O)cc2O[C@H](c2cc(O)c(O)c(O)c2)[C@H]1O [dihydromyricetin, Dihydromyricetin]
- time to elimination from the body ([1]; Liu et al. 2019): about 12 hours

SMILES: N[C@@H](Cc1ccc(O)c(O)c1)C(=O)O [L-Dopa, Levodopa]
- tremors [2]: eliminated tremors

SMILES: Oc1ccc(C=Cc2cc(O)cc(O)c2)cc1 [resveratrol]
- epigenetic age below chronological age ([3]; 300 mg of resveratrol one hour before C60, one treatment per week for 8 weeks): 14.6 years

SMILES: C[S+]([O-])CCCCN=C=S (stereo not shown) [sulforaphane]
- time to peak in the bloodstream ([1]; in vivo): ≥ 15 min
- half-life [1]: about an hour
- duration of activity [4]: approximately sixty minutes
- time to maximum activity [4]: 15 min

SMILES: CC(C)(O)[C@@H]1CC[C@](C)([C@H]2[C@@H](O)C[C@@]3(C)[C@@H]4C[C@H](O)[C@H]5C(C)(C)[C@@H](O)CC[C@@]56C[C@@]46CC[C@]23C)O1 [cycloasragenol, cycloastragenol]
- effect on epigenetic age ([3]; telomere agonist every fourth treatment): did not show the same negative effects
- effect on epigenetic age ([3]; telomere agonist with every C60/mitochondrial switches treatment): rapidly increase epigenetic age

SMILES: CCCCCCCCCCCCCCCCCC(=O)O [stearic acid]
- half-life [1]: ten to twelve hours

From patent US11541022B2, “Methods and compositions for the treatment of neurological diseases and syndromes of aging” (priority 2018, dated 2023)
